Experimental findings from patent US20240293384A1, “METHODS AND COMPOSITIONS FOR TREATMENT OF COVID-19” (priority 2021, published 2024) are described below.

Each structure is given as a SMILES string.

The test system of assay [1] is SARS-CoV-2. The format is cell-based, SARS-CoV-2 (Seattle strain).
The next assay has as its system tubulin network. In words: mRNA sequencing and IPA analysis of SARS-CoV-2-infected neurons. As to conditions: neurons infected with virus for 24 hours, treated vs vehicle (DMSO). The format is cell-based, human.
The test system of assay [2] is SARS-CoV-2. The format is cell-based.
The next assay concerns Calu3 cells. In words: RNAseq of infected Calu3 cells, DEG reversal z-score analysis. The format is cell-based, human. As to conditions: overlapping genes with FDR<10%.

Turning to `O=[N+]([O-])c1ccc(Sc2nnc(COc3ccccc3)n2-c2ccccc2)nc1` [MIND4-17, 5-Nitro-2-{[5-(phenoxymethyl)-4-phenyl-4H-1,2,4-triazol-3-yl]thio}pyridine], the “SARS-CoV-2 levels determined by qPCR for Spike mRNA” value in the assay on SARS-CoV-2 [1] is reported as “dramatic reduction in Spike transcripts”. For the same compound, the “expression of tubulins in mRNAseq (IPA Coronavirus Replication Pathway)” value in the assay on tubulin network is “downregulated”.
On to `O=[N+]([O-])c1ccc(Sc2nnc(COc3ccccc3)n2-c2ccccc2)c2ncccc12` [MIND4], for which the “viral RNA levels (qPCR, Spike RNA)” value with SARS-CoV-2 [2] is given as “dramatic reduction in viral RNA levels”. For the same compound, the “restoration of gene expression of infected cells to uninfected levels (log 2 fold change z-scores)” value in the assay with Calu3 cells is listed as “significant restoration back to uninfected state”.
